Assays:
[1] = test system: human oxytocin (hOT) receptor vs human V2 (hV2) receptor; details: ratio of EC50 values; from Table 2 in WO2009/122285; cited from earlier work
[2] = test system: subjects with Prader-Willi Syndrome (PWS); assay: Double-blind, placebo-controlled clinical trial of carbetocin intranasal spray in subjects with PWS; assay type: in vivo, human; details: for Clinical Global Impression, Least-Squares Mean Change Carbetocin vs. Placebo: CGI-I 7-point clinician rating; for HPWSQ-R-C Behavior domain score, Least-Squares Mean Change Carbetocin vs. Placebo / HPWSQ-R-C Drive domain score, Least-Squares Mean Change Carbetocin vs. Placebo / HPWSQ-R-C Severity domain score, Least-Squares Mean Change Carbetocin vs. Placebo / HPWSQ-R-C total score, Least-Squares Mean Change Carbetocin vs. Placebo: clinician rated; for HPWSQ-R total score, Least-Squares Mean Change Carbetocin vs. Placebo / HPWSQ-R Behavior domain score, Least-Squares Mean Change Carbetocin vs. Placebo / HPWSQ-R Drive domain score, Least-Squares Mean Change Carbetocin vs. Placebo / HPWSQ-R Severity domain score, Least-Squares Mean Change Carbetocin vs. Placebo: parent/caregiver rated; for HPWSQ-R total score, Least-Squares Mean Change Carbetocin vs. Placebo: negative = improvement vs placebo
Experimental: A prospective, double-blind, placebo-controlled, parallel trial in subjects with PWS between 10 and 18 years of age with genetically confirmed diagnosis of PWS and a documented nutritional Phase 3 based on the criteria described in Miller et al, 2011 (Am J Med Genet A, 155A(5):1040-1049) was performed. The trial included a Screening Period, a 14-day Treatment Period, and a Follow-Up Period. Subjects, along with their parent/caregiver, were required to visit the investigational site 4 times over the course of the trial and participate in 2 phone call assessments. The trial schedule is listed below. • Visit 1: Screening Period (Day −7 to Day 0) • Visit 2: Baseline 1st day dosing on site (Day 1) • Visit 3: 2nd day dosing on site (Day 2) • Phone call assessment (Day 8±1) • Visit 4: End-of-Treatment Visit (Day 15) • Follow-up phone call (Day 19±3)
Following appropriate informed consent procedures, subjects underwent screening evaluations to determine eligibility before randomization. After randomization, efficacy measures and other assessments, including physical examination, vital signs, and collection of blood samples for clinical laboratory and pharmacokinetic evaluation, were performed at selected visits. Subjects were closely monitored for adverse events throughout the trial.
Prior to first dosing at the investigational site, parents/caregivers were trained on the proper use of the nasal spray device and procedures for investigational medicinal product (IMP) home delivery. Parents/caregivers were instructed to administer 3 intranasal spray pumps of blinded IMP per nostril 3 times daily before meals within the following intervals:
38 subjects, 10-18 years of age, with genetically confirmed diagnosis of PWS and documented nutritional phase 3 PWS criteria (based on Miller et al, 2011), were randomized. 36 subjects completed the study.
The carbetocin intranasal spray was prepared by dissolving […] in 0.9% sterile sodium chloride solution. Specifically, the preweighed carbetocin powder was reconstituted with the sodium chloride solution and subsequently transferred to a nasal spray device. Each spray pump actuation delivered a 50 μL volume of solution containing 1.6 mg carbetocin. Each dose consisted of 3 spray pump actuations in each nostril to deliver a total of 9.6 mg carbetocin. The daily dose of carbetocin was 28.8 mg.
The primary endpoint measured in this trial was change in the total score from Visit 2 to Visit 4 in Hyperphagia in Prader-Willi Syndrome Questionnaire-Responsiveness (HPWSQ-R), which was completed by the parent/caregiver.
1. Clinical Global Impression-Improvement (CGI-I) after treatment at Visit 4.
2. Change from Visit 2 to Visit 4 for the following measurements: • HPWSQ-R hyperphagia behavior, drive, and severity domain scores. • Hyperphagia in Prader-Willi Syndrome Questionnaire-Responsiveness—completed by the clinician (HPWSQ-R-C) total score. • HPWSQ-R-C hyperphagia behavior, drive, and severity domain scores.
3. Change from Visit 1 to Visit 4 for the following measurements: • Children's Yale-Brown Obsessive Compulsive Scale (CY-BOCS) score. • Food Domain of the Reiss Profile.
The primary endpoint was analyzed using an analysis of covariance model with treatment and site as fixed effects and HPWSQ-R total score at Visit 2 (baseline) as a covariate. The last observation carried forward method was used to carry forward non-missing values of HPWSQ-R total score during the phone call assessment (Day 8±1) to impute missing values of HPWSQ-R total score at Visit 4. The treatment group difference in total score between placebo and carbetocin was calculated by subtracting the mean change from baseline in placebo from that in the carbetocin group. A borderline statistically significant difference at the 10% significant level was achieved if the upper limit of the 90% 1-sided confidence interval for the treatment difference was less than zero. […]

Compound: CC[C@H](C)[C@@H]1NC(=O)[C@H](Cc2ccc(O)cc2)NC(=O)[C@@H](N)CSSC[C@@H](C(=O)N2CCC[C@H]2C(=O)N[C@@H](CC(C)C)C(=O)NCC(N)=O)NC(=O)[C@H](CC(N)=O)NC(=O)[C@H](CCC(N)=O)NC1=O [Oxytocin]
- hV2/hOT selectivity ratio (EC50 hV2/EC50 hOT) [1]: 3

Compound: carbetocin
- Clinical Global Impression, Least-Squares Mean Change Carbetocin vs. Placebo ([2]; Day 8, intranasal 28.8 mg/day): −0.9/0.0162
- HPWSQ-R-C Behavior domain score, Least-Squares Mean Change Carbetocin vs. Placebo ([2]; Day 8, intranasal 28.8 mg/day): −5.4/0.0017
- HPWSQ-R-C Drive domain score, Least-Squares Mean Change Carbetocin vs. Placebo ([2]; Day 8, intranasal 28.8 mg/day): −3.4/0.0019
- HPWSQ-R-C Severity domain score, Least-Squares Mean Change Carbetocin vs. Placebo ([2]; Day 8, intranasal 28.8 mg/day): −1.7/0.0061
- HPWSQ-R-C total score, Least-Squares Mean Change Carbetocin vs. Placebo ([2]; Day 8, intranasal 28.8 mg/day): −10.2/0.0017
- CY-BOCS, Least-Squares Mean Change Carbetocin vs. Placebo ([2]; Day 8, intranasal 28.8 mg/day): −2.7/0.0956
- Food Domain Score of Reiss Profile, Least-Squares Mean Change Carbetocin vs. Placebo ([2]; Day 8, intranasal 28.8 mg/day): −3.0/0.0184
- HPWSQ-R total score, Least-Squares Mean Change Carbetocin vs. Placebo ([2]; Day 8, intranasal 9.6 mg three times daily (28.8 mg/day)): −5.2/0.0632
- HPWSQ-R Behavior domain score, Least-Squares Mean Change Carbetocin vs. Placebo ([2]; Day 8, intranasal 28.8 mg/day): −1.9/0.1153
- HPWSQ-R Drive domain score, Least-Squares Mean Change Carbetocin vs. Placebo ([2]; Day 8, intranasal 28.8 mg/day): −2.1/0.0625
- HPWSQ-R Severity domain score, Least-Squares Mean Change Carbetocin vs. Placebo ([2]; Day 8, intranasal 28.8 mg/day): −1.1/0.0572
- Clinical Global Impression, Least-Squares Mean Change Carbetocin vs. Placebo ([2]; Day 15, intranasal 28.8 mg/day): −0.8/0.0233
- HPWSQ-R-C Behavior domain score, Least-Squares Mean Change Carbetocin vs. Placebo ([2]; Day 15, intranasal 28.8 mg/day): −4.3/0.0068
- HPWSQ-R-C Drive domain score, Least-Squares Mean Change Carbetocin vs. Placebo ([2]; Day 15, intranasal 28.8 mg/day): −2.6/0.0340
- HPWSQ-R-C Severity domain score, Least-Squares Mean Change Carbetocin vs. Placebo ([2]; Day 15, intranasal 28.8 mg/day): −2.2/0.0014
- HPWSQ-R-C total score, Least-Squares Mean Change Carbetocin vs. Placebo ([2]; Day 15, intranasal 28.8 mg/day): −10.5/0.0014
- CY-BOCS, Least-Squares Mean Change Carbetocin vs. Placebo ([2]; Day 15, intranasal 28.8 mg/day): −6.2/0.0047
- Food Domain Score of Reiss Profile, Least-Squares Mean Change Carbetocin vs. Placebo ([2]; Day 15, intranasal 28.8 mg/day): −4.4/0.0132
- HPWSQ-R Behavior domain score, Least-Squares Mean Change Carbetocin vs. Placebo ([2]; Day 15, intranasal 28.8 mg/day): −2.0/0.1172
- HPWSQ-R Drive domain score, Least-Squares Mean Change Carbetocin vs. Placebo ([2]; Day 15, intranasal 28.8 mg/day): −1.6/0.1436
- HPWSQ-R Severity domain score, Least-Squares Mean Change Carbetocin vs. Placebo ([2]; Day 15, intranasal 28.8 mg/day): −1.5/0.0248
- HPWSQ-R total score, Least-Squares Mean Change Carbetocin vs. Placebo ([2]; Day 15, intranasal 28.8 mg/day): −6.7/0.0290
- Improvement over placebo treated patients in HPWSQ-R, HPWSQ-R-C, CGI, CY-BOCS and Food Domain Score of Reiss Profile ([2]; Day 15 results, P<0.05): statistically significant improvement
- hV2/hOT selectivity ratio (EC50 hV2/EC50 hOT) [1]: 244

Source: patent publication US10441627B2, “Method of treating prader-willi syndrome” (Ferring B.V., priority 2014, dated 2019)
